Substitutions are numbered along the chain they refer to.

This note sets out measurements from article PMC10337980 (PLOS Genetics, 2023).

Common to all, as to assay type: cell-based
Assay [1] concerns the target T1, LsRDL (Laodelphax striatellus, UniProt Q0ECT5).
T1 construct: homomeric
T1 sequence (Q0ECT5 23-487): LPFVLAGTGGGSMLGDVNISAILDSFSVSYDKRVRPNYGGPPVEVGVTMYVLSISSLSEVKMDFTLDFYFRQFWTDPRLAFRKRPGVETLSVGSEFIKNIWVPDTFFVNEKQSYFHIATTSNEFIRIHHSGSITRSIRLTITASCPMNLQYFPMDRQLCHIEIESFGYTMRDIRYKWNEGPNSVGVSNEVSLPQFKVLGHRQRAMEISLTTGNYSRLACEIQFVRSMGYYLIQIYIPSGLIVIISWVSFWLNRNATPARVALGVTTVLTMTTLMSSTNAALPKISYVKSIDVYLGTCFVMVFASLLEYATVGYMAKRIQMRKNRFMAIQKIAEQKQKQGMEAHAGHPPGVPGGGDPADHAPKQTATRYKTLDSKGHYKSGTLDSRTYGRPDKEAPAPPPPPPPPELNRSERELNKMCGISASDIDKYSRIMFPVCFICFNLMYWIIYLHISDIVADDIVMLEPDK
In words: two-electrode voltage clamp, inhibition of GABA-induced current in Xenopus oocytes. A general note: Two-electrode voltage clamp holds a large cell at a set potential and records current.

Assay [2] deals with T2, AmRDL (Apis mellifera, UniProt A0A168SJP2).
T2 construct: homomeric
T2 sequence (A0A168SJP2 19-477): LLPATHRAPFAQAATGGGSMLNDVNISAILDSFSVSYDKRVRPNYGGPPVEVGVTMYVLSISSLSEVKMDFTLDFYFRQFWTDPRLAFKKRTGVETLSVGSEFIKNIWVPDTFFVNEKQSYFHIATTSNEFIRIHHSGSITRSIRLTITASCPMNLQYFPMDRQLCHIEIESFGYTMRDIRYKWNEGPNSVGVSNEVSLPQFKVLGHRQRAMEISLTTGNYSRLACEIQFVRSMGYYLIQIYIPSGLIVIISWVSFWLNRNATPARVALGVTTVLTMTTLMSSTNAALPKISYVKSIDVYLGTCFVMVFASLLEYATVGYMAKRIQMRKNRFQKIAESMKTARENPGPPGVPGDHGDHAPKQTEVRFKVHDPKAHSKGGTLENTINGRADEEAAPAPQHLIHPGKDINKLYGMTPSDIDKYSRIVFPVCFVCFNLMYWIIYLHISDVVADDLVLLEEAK
The assay is described as above.

Assay [3] has as its target T3, CsRDL (Chilo suppressalis, UniProt E2IKR3).
T3 construct: homomeric channel
T3 sequence (E2IKR3 27-496): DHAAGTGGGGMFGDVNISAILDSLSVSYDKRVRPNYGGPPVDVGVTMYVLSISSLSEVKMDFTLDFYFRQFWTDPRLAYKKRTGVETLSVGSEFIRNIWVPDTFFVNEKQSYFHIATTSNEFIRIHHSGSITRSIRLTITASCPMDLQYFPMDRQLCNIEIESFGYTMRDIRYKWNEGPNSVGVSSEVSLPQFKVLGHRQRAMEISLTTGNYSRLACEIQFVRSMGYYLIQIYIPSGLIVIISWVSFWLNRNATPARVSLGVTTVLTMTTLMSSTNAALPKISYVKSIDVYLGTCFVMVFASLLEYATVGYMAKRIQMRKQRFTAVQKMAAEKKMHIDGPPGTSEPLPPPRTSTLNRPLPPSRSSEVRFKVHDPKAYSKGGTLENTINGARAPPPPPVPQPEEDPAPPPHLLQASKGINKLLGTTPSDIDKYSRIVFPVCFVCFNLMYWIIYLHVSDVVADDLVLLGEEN
Described as above.

The target of assay [4] is T4, DmRDL (Drosophila melanogaster, UniProt P25123, G335M).
T4 construct: gene Rdl; homomeric
T4 sequence (P25123 45-606 G335M): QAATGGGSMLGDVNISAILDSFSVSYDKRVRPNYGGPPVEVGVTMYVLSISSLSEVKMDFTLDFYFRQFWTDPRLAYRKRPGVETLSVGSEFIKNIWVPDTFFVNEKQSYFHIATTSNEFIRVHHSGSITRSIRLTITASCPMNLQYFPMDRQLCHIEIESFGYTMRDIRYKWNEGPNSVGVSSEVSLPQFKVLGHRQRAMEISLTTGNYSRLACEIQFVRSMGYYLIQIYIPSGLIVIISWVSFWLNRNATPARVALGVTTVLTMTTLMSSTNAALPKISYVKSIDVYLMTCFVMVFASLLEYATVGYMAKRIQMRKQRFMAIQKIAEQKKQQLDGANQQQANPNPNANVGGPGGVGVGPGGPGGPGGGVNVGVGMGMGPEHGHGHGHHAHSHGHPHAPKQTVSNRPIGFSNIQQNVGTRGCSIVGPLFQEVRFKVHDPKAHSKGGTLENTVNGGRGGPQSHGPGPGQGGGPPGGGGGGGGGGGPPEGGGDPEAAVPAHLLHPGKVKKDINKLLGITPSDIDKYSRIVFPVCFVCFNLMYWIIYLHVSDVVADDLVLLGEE
The description is as above.

The target of assay [5] is T5, DmRDL (Drosophila melanogaster, UniProt P25123).
T5 construct: gene Rdl; homomeric
T5 sequence (P25123 45-606): T4 sequence (P25123 45-606 G335M) with M291G
Described as above.

In assay [6] the target is T6, TuRDL (Tetranychus urticae, UniProt E3WEB3).
T6 construct: gene Rdl; homomeric
T6 sequence (E3WEB3 18-827): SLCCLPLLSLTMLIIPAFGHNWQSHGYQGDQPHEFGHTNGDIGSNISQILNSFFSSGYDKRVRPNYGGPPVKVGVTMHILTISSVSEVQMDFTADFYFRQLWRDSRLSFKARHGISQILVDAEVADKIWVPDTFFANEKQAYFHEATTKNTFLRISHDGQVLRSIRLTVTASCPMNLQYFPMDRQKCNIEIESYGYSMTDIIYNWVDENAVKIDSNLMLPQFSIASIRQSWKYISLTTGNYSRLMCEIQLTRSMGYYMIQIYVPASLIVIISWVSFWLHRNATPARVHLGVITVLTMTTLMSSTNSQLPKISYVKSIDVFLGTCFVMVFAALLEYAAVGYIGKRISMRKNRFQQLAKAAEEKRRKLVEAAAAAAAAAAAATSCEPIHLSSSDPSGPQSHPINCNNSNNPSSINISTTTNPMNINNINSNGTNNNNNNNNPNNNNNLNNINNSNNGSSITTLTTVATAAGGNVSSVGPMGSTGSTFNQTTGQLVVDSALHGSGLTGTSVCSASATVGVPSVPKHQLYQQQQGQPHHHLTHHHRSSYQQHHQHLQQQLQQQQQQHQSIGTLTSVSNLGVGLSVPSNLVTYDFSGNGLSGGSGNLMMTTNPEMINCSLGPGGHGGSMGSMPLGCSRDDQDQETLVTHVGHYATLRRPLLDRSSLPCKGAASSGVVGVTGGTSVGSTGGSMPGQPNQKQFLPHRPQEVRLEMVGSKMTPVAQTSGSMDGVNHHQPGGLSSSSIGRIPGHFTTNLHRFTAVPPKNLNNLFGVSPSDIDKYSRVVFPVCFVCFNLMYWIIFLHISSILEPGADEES
The description is as above.

In assay [7] the target is T2, AmRDL. In words: two-electrode voltage clamp, GABA-induced current in Xenopus oocytes.
Assay [8] concerns the target T3, CsRDL. Described as above.
Assay [9] has as its target T6, TuRDL. Described as above.
Assay [10] has as its target T1, LsRDL. The assay is described as above.

As a reminder, the IC50 is the concentration that gives 50% inhibition. A higher IC50 goes with lower potency. With `Cc1cc(C2=NOC(c3cc(Cl)cc(Cl)c3)(C(F)(F)F)C2)ccc1C(=O)NCC(=O)NCC(F)(F)F` (centres unmarked) [fluralaner], the IC50 at LsRDL [1] was 0.00327 µM; against AmRDL [2], 0.00938 µM; on CsRDL [3], 0.0042 µM; against DmRDL [4], greater than 10 µM; against DmRDL [5] it was 0.00696 µM; at TuRDL [6] it was 0.00253 µM.
The EC50 is the midpoint of the concentration-response curve. Lower therefore signals higher potency in that assay. For the compound `NCCCC(=O)O` [GABA], the EC50 at AmRDL [7] was found to be 13.4 µM; at CsRDL [8], 18.1 µM; on TuRDL [9], 295 µM; at LsRDL [10], 31.9 µM.
At CsRDL [3], `N#Cc1nn(-c2c(Cl)cc(C(F)(F)F)cc2Cl)c(N)c1[S+]([O-])C(F)(F)F` (centres unmarked) [fipronil] showed an IC50 of 0.01 µM.
